Data from the kinase profiling compilation of Christmann-Franck et al. (2016).

Key:
Experiment in all cases: KINOMEscan competition binding
Conditions in all cases: compound 10.0 µM
[1] = test system: EGFR (human), P00533 [L858R]
RPS6KA4 KD1 (human) = RPS6KA4 KD1 (human) (UniProt O75676)
CDK11B (human) = CDK11B (human) (UniProt P21127)
LATS1 (human) = LATS1 (human) (UniProt O95835)
NTRK3 (human) = NTRK3 (human) (UniProt Q16288)
CLK1 (human) = CLK1 (human) (UniProt P49759)
PRKAA1 (human) = PRKAA1 (human) (UniProt Q13131)
MAPK8 (human) = MAPK8 (human) (UniProt P45983)
MAP2K2 (human) = MAP2K2 (human) (UniProt P36507)
STK33 (human) = STK33 (human) (UniProt Q9BYT3)
PAK3 (human) = PAK3 (human) (UniProt O75914)
MAP3K2 (human) = MAP3K2 (human) (UniProt Q9Y2U5)
MAST1 (human) = MAST1 (human) (UniProt Q9Y2H9)
FGFR2 (human) = FGFR2 (human) (UniProt P21802)
[2] = test system: ABL1 (human), P00519 [F317L]
ALK (human) = ALK (human) (UniProt Q9UM73)
TESK1 (human) = TESK1 (human) (UniProt Q15569)
CSNK2A1 (human) = CSNK2A1 (human) (UniProt P68400)
CDK16 (human) = CDK16 (human) (UniProt Q00536)
FRK (human) = FRK (human) (UniProt P42685)
PAK1 (human) = PAK1 (human) (UniProt Q13153)
TEK (human) = TEK (human) (UniProt Q02763)
MAPK9 (human) = MAPK9 (human) (UniProt P45984)
CSNK2A2 (human) = CSNK2A2 (human) (UniProt P19784)
NTRK2 (human) = NTRK2 (human) (UniProt Q16620)
MAPKAPK5 (human) = MAPKAPK5 (human) (UniProt Q8IW41)
CDK8 (human) = CDK8 (human) (UniProt P49336)
FGFR1 (human) = FGFR1 (human) (UniProt P11362)
CDC42BPA (human) = CDC42BPA (human) (UniProt Q5VT25)
MAPK3 (human) = MAPK3 (human) (UniProt P27361)
EIF2AK1 (human) = EIF2AK1 (human) (UniProt Q9BQI3)
PKN3 (M.tuberculosis) = PKN3 (M.tuberculosis) (UniProt Q6P5Z2)
[3] = test system: KIT (human), P10721 [D816H]
RPS6KB1 (human) = RPS6KB1 (human) (UniProt P23443)
SGK3 (human) = SGK3 (human) (UniProt Q96BR1)

Chain of CSNK2A2 (human) (P19784 whole entry, looked up): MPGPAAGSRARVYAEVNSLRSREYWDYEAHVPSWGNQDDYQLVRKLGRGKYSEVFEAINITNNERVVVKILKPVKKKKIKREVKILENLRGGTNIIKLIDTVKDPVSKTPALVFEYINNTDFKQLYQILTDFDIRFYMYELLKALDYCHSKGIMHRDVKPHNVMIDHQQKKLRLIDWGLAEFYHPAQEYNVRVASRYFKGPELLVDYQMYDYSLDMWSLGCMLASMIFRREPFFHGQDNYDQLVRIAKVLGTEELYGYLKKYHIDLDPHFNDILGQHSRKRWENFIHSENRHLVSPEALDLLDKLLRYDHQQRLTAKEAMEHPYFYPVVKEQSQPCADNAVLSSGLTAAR
Chain of MAPK9 (human) (P45984 whole entry, looked up): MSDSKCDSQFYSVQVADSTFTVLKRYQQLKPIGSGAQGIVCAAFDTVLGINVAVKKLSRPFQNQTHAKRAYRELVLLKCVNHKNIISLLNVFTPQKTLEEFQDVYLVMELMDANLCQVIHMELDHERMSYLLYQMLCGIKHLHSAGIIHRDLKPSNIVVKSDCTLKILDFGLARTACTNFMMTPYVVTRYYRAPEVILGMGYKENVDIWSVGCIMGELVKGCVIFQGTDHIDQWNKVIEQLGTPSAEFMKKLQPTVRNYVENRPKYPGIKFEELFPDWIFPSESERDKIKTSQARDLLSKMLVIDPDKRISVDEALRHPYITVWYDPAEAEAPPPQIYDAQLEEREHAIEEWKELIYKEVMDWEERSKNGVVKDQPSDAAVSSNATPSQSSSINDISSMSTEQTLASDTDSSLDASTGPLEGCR
Chain of STK33 (human) (Q9BYT3 whole entry, looked up): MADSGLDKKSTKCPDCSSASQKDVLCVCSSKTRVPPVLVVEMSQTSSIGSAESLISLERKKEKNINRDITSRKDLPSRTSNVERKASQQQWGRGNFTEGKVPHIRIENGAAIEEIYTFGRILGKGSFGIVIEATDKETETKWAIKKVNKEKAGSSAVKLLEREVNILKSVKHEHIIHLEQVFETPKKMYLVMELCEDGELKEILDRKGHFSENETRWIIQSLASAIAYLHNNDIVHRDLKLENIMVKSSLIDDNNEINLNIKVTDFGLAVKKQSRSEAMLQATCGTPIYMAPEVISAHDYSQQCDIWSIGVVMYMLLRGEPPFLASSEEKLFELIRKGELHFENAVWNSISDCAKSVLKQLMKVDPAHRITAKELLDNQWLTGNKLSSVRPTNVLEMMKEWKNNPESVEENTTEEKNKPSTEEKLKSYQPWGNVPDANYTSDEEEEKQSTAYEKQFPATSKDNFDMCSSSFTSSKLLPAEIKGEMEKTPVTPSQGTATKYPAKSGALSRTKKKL
Chain of CDK8 (human) (P49336 whole entry, looked up): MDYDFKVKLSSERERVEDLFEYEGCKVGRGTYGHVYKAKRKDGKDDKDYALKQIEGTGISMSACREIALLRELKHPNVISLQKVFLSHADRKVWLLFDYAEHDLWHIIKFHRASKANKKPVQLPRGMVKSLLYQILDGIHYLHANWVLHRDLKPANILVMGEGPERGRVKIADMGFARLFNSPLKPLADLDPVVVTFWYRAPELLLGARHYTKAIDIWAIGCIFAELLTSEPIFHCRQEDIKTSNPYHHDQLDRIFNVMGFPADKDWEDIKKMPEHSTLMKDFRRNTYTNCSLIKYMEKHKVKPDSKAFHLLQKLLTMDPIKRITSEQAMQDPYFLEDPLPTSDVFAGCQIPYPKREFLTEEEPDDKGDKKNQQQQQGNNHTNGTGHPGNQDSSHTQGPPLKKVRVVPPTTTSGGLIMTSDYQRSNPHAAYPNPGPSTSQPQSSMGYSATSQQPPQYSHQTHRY
Chain of CLK1 (human) (P49759 whole entry, looked up): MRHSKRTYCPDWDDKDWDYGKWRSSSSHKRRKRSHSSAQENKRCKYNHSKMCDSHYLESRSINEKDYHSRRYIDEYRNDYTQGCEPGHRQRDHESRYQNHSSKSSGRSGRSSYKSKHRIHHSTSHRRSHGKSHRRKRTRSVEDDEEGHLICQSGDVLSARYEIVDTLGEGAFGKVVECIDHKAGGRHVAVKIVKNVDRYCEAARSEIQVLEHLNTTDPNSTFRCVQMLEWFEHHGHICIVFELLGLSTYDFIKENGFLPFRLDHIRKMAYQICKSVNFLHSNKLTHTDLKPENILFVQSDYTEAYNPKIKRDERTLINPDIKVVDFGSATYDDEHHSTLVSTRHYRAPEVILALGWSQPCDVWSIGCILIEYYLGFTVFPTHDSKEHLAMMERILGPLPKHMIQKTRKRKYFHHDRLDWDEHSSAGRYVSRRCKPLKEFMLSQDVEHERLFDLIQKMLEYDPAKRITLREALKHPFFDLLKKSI
Chain of PRKAA1 (human) (Q13131 whole entry, looked up): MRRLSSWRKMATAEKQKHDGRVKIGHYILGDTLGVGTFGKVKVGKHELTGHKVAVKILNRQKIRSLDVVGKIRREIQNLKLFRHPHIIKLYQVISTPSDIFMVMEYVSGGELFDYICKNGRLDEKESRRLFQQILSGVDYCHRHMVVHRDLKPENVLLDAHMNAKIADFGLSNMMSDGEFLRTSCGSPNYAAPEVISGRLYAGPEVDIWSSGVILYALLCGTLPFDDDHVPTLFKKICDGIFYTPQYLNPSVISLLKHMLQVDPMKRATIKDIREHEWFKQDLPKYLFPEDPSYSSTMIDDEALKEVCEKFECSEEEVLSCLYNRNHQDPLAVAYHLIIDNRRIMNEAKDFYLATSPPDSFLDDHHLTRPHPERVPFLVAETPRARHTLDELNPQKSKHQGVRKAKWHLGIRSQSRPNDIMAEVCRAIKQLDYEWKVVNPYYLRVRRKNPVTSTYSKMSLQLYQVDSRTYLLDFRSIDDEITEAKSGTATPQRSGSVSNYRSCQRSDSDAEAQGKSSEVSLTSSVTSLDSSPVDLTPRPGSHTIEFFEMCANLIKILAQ
Chain of TEK (human) (Q02763 whole entry, looked up): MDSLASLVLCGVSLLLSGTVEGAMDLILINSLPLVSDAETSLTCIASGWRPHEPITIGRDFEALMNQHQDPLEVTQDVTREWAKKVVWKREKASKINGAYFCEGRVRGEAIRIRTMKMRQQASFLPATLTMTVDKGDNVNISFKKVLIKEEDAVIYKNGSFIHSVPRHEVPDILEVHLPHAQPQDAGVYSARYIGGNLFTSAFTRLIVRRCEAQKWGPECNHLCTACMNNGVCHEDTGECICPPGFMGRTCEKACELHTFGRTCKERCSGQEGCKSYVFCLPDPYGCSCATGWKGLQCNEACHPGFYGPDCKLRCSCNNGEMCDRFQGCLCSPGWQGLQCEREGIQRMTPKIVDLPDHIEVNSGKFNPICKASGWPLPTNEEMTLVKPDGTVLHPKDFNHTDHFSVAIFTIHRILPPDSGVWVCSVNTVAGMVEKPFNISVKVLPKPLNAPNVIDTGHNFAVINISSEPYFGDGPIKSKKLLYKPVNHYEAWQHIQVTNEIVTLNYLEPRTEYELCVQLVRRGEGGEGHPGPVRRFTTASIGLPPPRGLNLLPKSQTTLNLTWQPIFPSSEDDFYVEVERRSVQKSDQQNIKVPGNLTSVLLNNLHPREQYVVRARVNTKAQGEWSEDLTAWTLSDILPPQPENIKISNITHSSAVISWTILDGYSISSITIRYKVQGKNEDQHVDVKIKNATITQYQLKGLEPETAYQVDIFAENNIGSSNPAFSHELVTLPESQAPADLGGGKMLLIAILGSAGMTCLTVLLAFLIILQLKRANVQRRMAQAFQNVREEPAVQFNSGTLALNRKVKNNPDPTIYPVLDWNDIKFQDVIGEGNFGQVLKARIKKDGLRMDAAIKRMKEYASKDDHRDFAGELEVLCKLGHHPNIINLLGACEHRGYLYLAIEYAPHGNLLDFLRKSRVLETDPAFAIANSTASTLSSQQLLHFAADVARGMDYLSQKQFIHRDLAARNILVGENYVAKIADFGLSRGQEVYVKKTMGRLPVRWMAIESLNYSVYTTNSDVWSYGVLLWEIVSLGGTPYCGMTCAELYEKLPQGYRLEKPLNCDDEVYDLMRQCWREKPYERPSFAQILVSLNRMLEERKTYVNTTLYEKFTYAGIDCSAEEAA
Chain of RPS6KA4 KD1 (human) (O75676 whole entry, looked up): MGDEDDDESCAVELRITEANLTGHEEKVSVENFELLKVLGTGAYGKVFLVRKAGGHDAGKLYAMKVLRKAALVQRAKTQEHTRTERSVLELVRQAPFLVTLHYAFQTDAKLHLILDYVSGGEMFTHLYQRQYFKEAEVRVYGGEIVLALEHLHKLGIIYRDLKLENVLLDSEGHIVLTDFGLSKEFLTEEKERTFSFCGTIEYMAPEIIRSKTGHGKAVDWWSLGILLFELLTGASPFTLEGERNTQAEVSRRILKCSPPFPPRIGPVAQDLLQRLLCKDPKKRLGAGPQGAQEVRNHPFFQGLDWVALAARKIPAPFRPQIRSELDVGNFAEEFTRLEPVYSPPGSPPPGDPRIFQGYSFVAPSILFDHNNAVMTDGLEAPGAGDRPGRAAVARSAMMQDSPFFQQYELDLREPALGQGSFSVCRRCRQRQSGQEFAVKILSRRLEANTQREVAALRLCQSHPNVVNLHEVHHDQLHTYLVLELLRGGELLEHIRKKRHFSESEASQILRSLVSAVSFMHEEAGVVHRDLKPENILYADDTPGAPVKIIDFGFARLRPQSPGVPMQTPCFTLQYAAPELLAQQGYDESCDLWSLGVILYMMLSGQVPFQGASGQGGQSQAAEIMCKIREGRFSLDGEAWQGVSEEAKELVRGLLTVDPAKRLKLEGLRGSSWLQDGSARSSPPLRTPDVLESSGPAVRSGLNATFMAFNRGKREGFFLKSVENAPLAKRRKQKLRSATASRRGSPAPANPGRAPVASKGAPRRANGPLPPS

`Cc1cn(-c2cc(C(=O)Nc3ccc(C)c(NC(=O)c4ccno4)c3)cc(C(F)(F)F)c2)cn1` gave a kinase still bound, per cent of control [1] of 100%, a kinase still bound, per cent of control (RPS6KA4 KD1 (human)) of 100% and a kinase still bound, per cent of control (CDK11B (human)) of 100%. For the same compound, the kinase still bound, per cent of control (LATS1 (human)) was 100%, the kinase still bound, per cent of control (NTRK3 (human)) was 100% and the kinase still bound, per cent of control (CLK1 (human)) was 100%. It also gave a kinase still bound, per cent of control (PRKAA1 (human)) of 100%, a kinase still bound, per cent of control (MAPK8 (human)) of 100% and a kinase still bound, per cent of control (MAP2K2 (human)) of 100%. The kinase still bound, per cent of control (STK33 (human)) was 100%, the kinase still bound, per cent of control (PAK3 (human)) was 100% and the kinase still bound, per cent of control (MAP3K2 (human)) was 100%. The kinase still bound, per cent of control (MAST1 (human)) was 100%, the kinase still bound, per cent of control (FGFR2 (human)) was 100% and the kinase still bound, per cent of control [2] was 1.4%. For the same compound, the kinase still bound, per cent of control (ALK (human)) was 100%, the kinase still bound, per cent of control (TESK1 (human)) was 100% and the kinase still bound, per cent of control (CSNK2A1 (human)) was 100%. For the same compound, the kinase still bound, per cent of control (CDK16 (human)) was 100%, the kinase still bound, per cent of control (FRK (human)) was 0.85% and the kinase still bound, per cent of control (PAK1 (human)) was 100%. The kinase still bound, per cent of control (TEK (human)) was 100%, the kinase still bound, per cent of control (MAPK9 (human)) was 100% and the kinase still bound, per cent of control (CSNK2A2 (human)) was 100%. For the same compound, the kinase still bound, per cent of control (NTRK2 (human)) was 100%, the kinase still bound, per cent of control (MAPKAPK5 (human)) was 100% and the kinase still bound, per cent of control (CDK8 (human)) was 100%. For the same compound, the kinase still bound, per cent of control (FGFR1 (human)) was 100%, the kinase still bound, per cent of control (CDC42BPA (human)) was 100% and the kinase still bound, per cent of control (MAPK3 (human)) was 100%.
For `COc1ccc(N(C(=O)Oc2cc(C(=O)Nc3cccc(C(F)(F)F)c3)ccc2C)c2ccnc(Nc3ccc(N4CCN(C)CC4)cc3)n2)c(OC)c1`, the kinase still bound, per cent of control [1] was 2.4%, the kinase still bound, per cent of control (RPS6KA4 KD1 (human)) was 100% and the kinase still bound, per cent of control (CDK11B (human)) was 8.3%. For the same compound, the kinase still bound, per cent of control (LATS1 (human)) was 100%, the kinase still bound, per cent of control (NTRK3 (human)) was 13% and the kinase still bound, per cent of control (CLK1 (human)) was 100%. It also gave a kinase still bound, per cent of control (PRKAA1 (human)) of 1.6%, a kinase still bound, per cent of control (MAPK8 (human)) of 100% and a kinase still bound, per cent of control (MAP2K2 (human)) of 100%. It also gave a kinase still bound, per cent of control (STK33 (human)) of 100%, a kinase still bound, per cent of control (PAK3 (human)) of 11% and a kinase still bound, per cent of control (FGFR2 (human)) of 3.4%. It also gave a kinase still bound, per cent of control (ALK (human)) of 10%, a kinase still bound, per cent of control (TESK1 (human)) of 3.8% and a kinase still bound, per cent of control (CSNK2A1 (human)) of 100%. It also gave a kinase still bound, per cent of control (CDK16 (human)) of 100%, a kinase still bound, per cent of control (FRK (human)) of 0.4% and a kinase still bound, per cent of control (PAK1 (human)) of 100%. The kinase still bound, per cent of control (TEK (human)) was 0.05%, the kinase still bound, per cent of control (MAPK9 (human)) was 19% and the kinase still bound, per cent of control (CSNK2A2 (human)) was 100%. For the same compound, the kinase still bound, per cent of control (NTRK2 (human)) was 24%, the kinase still bound, per cent of control (MAPKAPK5 (human)) was 100% and the kinase still bound, per cent of control (CDK8 (human)) was 100%. For the same compound, the kinase still bound, per cent of control (FGFR1 (human)) was 0.6%, the kinase still bound, per cent of control (CDC42BPA (human)) was 100% and the kinase still bound, per cent of control (MAPK3 (human)) was 100%.
`COc1cc(C)c(Sc2cnc(NC(=O)c3ccc(CNC(C)C(C)C)cc3)s2)cc1C(=O)N1CCN(C(C)=O)CC1` (stereo not given) was tested, and the kinase still bound, per cent of control [1] was 100%, the kinase still bound, per cent of control (RPS6KA4 KD1 (human)) was 100% and the kinase still bound, per cent of control (CDK11B (human)) was 100%. The kinase still bound, per cent of control (LATS1 (human)) was 100%, the kinase still bound, per cent of control (NTRK3 (human)) was 100% and the kinase still bound, per cent of control (CLK1 (human)) was 4.9%. The kinase still bound, per cent of control (PRKAA1 (human)) was 100%, the kinase still bound, per cent of control (MAPK8 (human)) was 100% and the kinase still bound, per cent of control (MAP2K2 (human)) was 100%. It also gave a kinase still bound, per cent of control (STK33 (human)) of 7%, a kinase still bound, per cent of control (PAK3 (human)) of 100% and a kinase still bound, per cent of control (FGFR2 (human)) of 100%. It also gave a kinase still bound, per cent of control [2] of 100%, a kinase still bound, per cent of control (ALK (human)) of 4.6% and a kinase still bound, per cent of control (TESK1 (human)) of 100%. For the same compound, the kinase still bound, per cent of control (CSNK2A1 (human)) was 100%, the kinase still bound, per cent of control (CDK16 (human)) was 100% and the kinase still bound, per cent of control (FRK (human)) was 100%. For the same compound, the kinase still bound, per cent of control (PAK1 (human)) was 100%, the kinase still bound, per cent of control (TEK (human)) was 29% and the kinase still bound, per cent of control (MAPK9 (human)) was 100%. It also gave a kinase still bound, per cent of control (CSNK2A2 (human)) of 100%, a kinase still bound, per cent of control (NTRK2 (human)) of 23% and a kinase still bound, per cent of control (MAPKAPK5 (human)) of 100%. The kinase still bound, per cent of control (CDK8 (human)) was 100%, the kinase still bound, per cent of control (FGFR1 (human)) was 100% and the kinase still bound, per cent of control (CDC42BPA (human)) was 100%. For the same compound, the kinase still bound, per cent of control (MAPK3 (human)) was 100%.
`CC(=O)c1c(C)c2cnc(Nc3ccc(N4CCNCC4)cn3)nc2n(C2CCCC2)c1=O` was tested, and the kinase still bound, per cent of control (RPS6KA4 KD1 (human)) was 75%, the kinase still bound, per cent of control (CDK11B (human)) was 93% and the kinase still bound, per cent of control (NTRK3 (human)) was 23%. It also gave a kinase still bound, per cent of control (EIF2AK1 (human)) of 32%, a kinase still bound, per cent of control (CLK1 (human)) of 1.2% and a kinase still bound, per cent of control (PRKAA1 (human)) of 22%. It also gave a kinase still bound, per cent of control (MAPK8 (human)) of 1.6%, a kinase still bound, per cent of control (MAP2K2 (human)) of 9.1% and a kinase still bound, per cent of control (STK33 (human)) of 24%. It also gave a kinase still bound, per cent of control (PAK3 (human)) of 20%, a kinase still bound, per cent of control (MAP3K2 (human)) of 49% and a kinase still bound, per cent of control (MAST1 (human)) of 5%. It also gave a kinase still bound, per cent of control (FGFR2 (human)) of 95%, a kinase still bound, per cent of control (ALK (human)) of 38% and a kinase still bound, per cent of control (TESK1 (human)) of 99%. For the same compound, the kinase still bound, per cent of control (CSNK2A1 (human)) was 0.05%, the kinase still bound, per cent of control (CDK16 (human)) was 0.2% and the kinase still bound, per cent of control (PKN3 (M.tuberculosis)) was 1%. It also gave a kinase still bound, per cent of control (MAPK9 (human)) of 0.5%, a kinase still bound, per cent of control (CSNK2A2 (human)) of 0.65% and a kinase still bound, per cent of control [3] of 56%. The kinase still bound, per cent of control (NTRK2 (human)) was 12%, the kinase still bound, per cent of control (RPS6KB1 (human)) was 36% and the kinase still bound, per cent of control (FGFR1 (human)) was 66%. It also gave a kinase still bound, per cent of control (CDC42BPA (human)) of 98%, a kinase still bound, per cent of control (SGK3 (human)) of 53% and a kinase still bound, per cent of control (MAPK3 (human)) of 64%.
`COc1cc(N2CCC(C(N)=O)CC2)ccc1Nc1nc(N)c(Cl)c(Nc2ccccc2S(=O)(=O)C(C)C)n1` was tested, and the kinase still bound, per cent of control [1] was 0.3%, the kinase still bound, per cent of control (RPS6KA4 KD1 (human)) was 100% and the kinase still bound, per cent of control (CDK11B (human)) was 100%. The kinase still bound, per cent of control (LATS1 (human)) was 100%, the kinase still bound, per cent of control (NTRK3 (human)) was 100% and the kinase still bound, per cent of control (CLK1 (human)) was 0.7%. It also gave a kinase still bound, per cent of control (PRKAA1 (human)) of 100%, a kinase still bound, per cent of control (MAPK8 (human)) of 4.1% and a kinase still bound, per cent of control (MAP2K2 (human)) of 100%. It also gave a kinase still bound, per cent of control (STK33 (human)) of 4.5%, a kinase still bound, per cent of control (PAK3 (human)) of 100% and a kinase still bound, per cent of control (FGFR2 (human)) of 100%. The kinase still bound, per cent of control [2] was 12%, the kinase still bound, per cent of control (ALK (human)) was 4.5% and the kinase still bound, per cent of control (TESK1 (human)) was 100%. For the same compound, the kinase still bound, per cent of control (CSNK2A1 (human)) was 100%, the kinase still bound, per cent of control (CDK16 (human)) was 100% and the kinase still bound, per cent of control (FRK (human)) was 6.6%. It also gave a kinase still bound, per cent of control (PAK1 (human)) of 100%, a kinase still bound, per cent of control (TEK (human)) of 100% and a kinase still bound, per cent of control (MAPK9 (human)) of 100%. The kinase still bound, per cent of control (CSNK2A2 (human)) was 100%, the kinase still bound, per cent of control (NTRK2 (human)) was 100% and the kinase still bound, per cent of control (MAPKAPK5 (human)) was 100%. For the same compound, the kinase still bound, per cent of control (CDK8 (human)) was 100%, the kinase still bound, per cent of control (FGFR1 (human)) was 100% and the kinase still bound, per cent of control (CDC42BPA (human)) was 100%. For the same compound, the kinase still bound, per cent of control (MAPK3 (human)) was 100%.
